In EPA's ToxValDB 9.5:
Several values for one entry are separate records, joined by “and”; a condition that tells them apart may be missing. Identical values can stand only once.

Tests used:
Rattus norvegicus [1] = conditions: oral
Rattus norvegicus [2] = test system: Rattus norvegicus
Rattus norvegicus [3] = test system: Rattus norvegicus; remark: listed apart in the source
Rattus norvegicus [4] = conditions: M/F
[5] = short-term, duration: 28 days, gavage, M, Sprague-Dawley, Clinical Observation: Diarrhea + Body Weight Changes: decrease + Food Consumption: decrease + Urinalysis: Color, Brown + Hematology: RET …
[6] = acute, oral, gavage, Sprague-Dawley
[7] = subchronic, duration: 90 days, oral, gavage, Sprague-Dawley
[8] = reproduction developmental, duration: 103 weeks, oral, drinking water, generation: F0
[9] = reproduction developmental, duration: 104 weeks, oral, drinking water
[10] = reproduction developmental, duration: 59 days, oral, drinking water

C=CCN(CC=C)CC=C [Triallylamine]
NOEL (Rattus norvegicus [1]; short-term, duration: 28 days, gavage, M/F, Sprague-Dawley, Clinical Observation: Locomotor activity decrease, Salivation + Functional Observational Battery: Hind limb grip strength decrease + Body …): 6 mg/kg-day

BrC(Br)c1ccccc1OCC1CO1 (stereo not drawn) [2-{[2-(Dibromomethyl)phenoxy]methyl}oxirane]
NOEL (Rattus norvegicus [1]; subchronic, gavage, M, Sprague-Dawley, Clinical Observation: Salivation (transient) + Absolute Organ Weight: Kidney increase + Relative Organ Weight: Kidney increase + …): 8 mg/kg-day

O=C(O)C1C(C(=O)O)C2(Cl)C(Cl)=C(Cl)C1(Cl)C2(Cl)Cl (stereo not drawn) [Chlorendic acid]
NOEL (Rattus norvegicus [1]; subchronic, duration: 13 weeks, diet, M/F, Fischer 344, Body Weight Changes: decrease + Histopathology: Liver-Cytomegaly Liver/bile duct -Hyperplasia Liver-Mitotic alteration): < 59.5 mg/kg-day

CC(C)=CC=C(C)C [2,5-Dimethyl-2,4-hexadiene]
NOEL (Rattus norvegicus [1]; subchronic, gavage, M, Sprague-Dawley, Clinical Observation: Soiled peri-genital + Body Weight Changes: decrease + Food Consumption: decrease(day1-8) + Hematology: WBC increase, …): < 100 mg/kg-day

Nc1nc(N)c2nc(-c3ccccc3)c(N)nc2n1 [Triamterene]
NOEL (Rattus norvegicus [1]; subchronic, duration: 13 weeks, diet, M/F, Fischer 344, Deaths + Body Weight Changes: decrease + Food Consumption: decrease + Histopathology: Kidney-Tubule degeneration Kidney-Cast Kidney-Tubule …): 14.4 mg/kg-day

CCC[CH2][Sn]([Cl])([Cl])[Cl] [Butyltin trichloride]
NOAEL (Rattus norvegicus [1]; subchronic, duration: 13 weeks, diet, M/F, Wistar, Urinalysis: pH increase + Hematology: WBC increase, Lymph increase + Blood Chemistry: ALP increase, ASAT increase, GGT increase, A/G …): 144 mg/kg-day

O=C1c2ccccc2C(=O)c2ccccc21 [Anthraquinone]
NOAEL (Rattus norvegicus [1]; [5]): < 200 mg/kg-day
NOEL (Rattus norvegicus [1]; [5]): < 200 mg/kg-day

FC(F)(F)C1(F)C(F)(F)C(F)(F)C(F)(F)C(F)(F)C1(F)C(F)(F)F (stereo not drawn) [Perfluoro-1,2-dimethylcyclohexane]
NOEL (Rattus norvegicus [1]; subchronic, duration: 42 days, gavage, M, CD(SD), Hematology: HGB decrease, HCT decrease + Histopathology: Liver-Hypertrophy, hepatocyte, central): 300 mg/kg-day

COc1ccc(N)c([N+](=O)[O-])c1 [4-Methoxy-2-nitroaniline]
NOEL (Rattus norvegicus [1]; subchronic, gavage, M, Sprague-Dawley, Clinical Observation: Orangish urine Soiled fur Salivation + Body Weight Changes: decrease(trend) + Food Consumption: decrease + Absolute …): < 12.5 mg/kg-day

CC1(C)CC(N)CC(C)(CN)C1 (stereo not drawn) [Isophorone diamine]
NOAEL (Rattus norvegicus [1]; subchronic, duration: 90 days, drinking water, M/F, Wistar, Body Weight Changes: Weight gain decrease + Food Consumption: decrease + Water Consumption: decrease + Absolute Organ Weight: Kidney …): 60 mg/kg-day

[Cd] [Cadmium]
LOAEL (Rattus norvegicus [2]; short-term, duration: 2 weeks, inhalation, M/F, Fischer 344, respiratory): 0.088 mg/m3

CC1(C)CC(=O)CC(C)(C)N1[O] [(2,2,6,6-Tetramethyl-4-oxopiperidin-1-yl)oxidanyl]
NOEL (Rattus norvegicus [1]; short-term, duration: 28 days, gavage, M/F, Clinical Observation: Salivation + Hematology: Trend of Anemia + Absolute Organ Weight: Spleen increase, Liver increase + Histopathology: …): 40 mg/kg-day

Cc1cc(C)c(C)c(O)c1 [2,3,5-Trimethylphenol]
NOEL (Rattus norvegicus [1]; subchronic, gavage, M, Sprague-Dawley, Clinical Observation: Soiled perigenitalia of urine LethargyAtaxia gait(transient after administration) + Body Weight Changes: decrease(…): 100 mg/kg-day

NCCCCCCCCCCC(=O)O [11-Aminoundecanoic acid]
NOEL (Rattus norvegicus [1]; subchronic, duration: 13 weeks, diet, M/F, Fischer 344, Deaths + Histopathology: Kidney - mineralization Kidney - transitional-cell hyperplasia Kidney/renal pelvis - hyperplasia): < 864 mg/kg-day

O=C(O)CCCC/C=C(\c1ccccc1)c1cccnc1 [Isbogrel]
NOAEL (Rattus norvegicus [1]; subchronic, gavage, M/F, CD, Clinical Observation: Salivation + Hematology: RBC decrease, HCT decrease, HGB decrease + Blood Chemistry: Bil increase, GLUC decrease, TP …): < 100 mg/kg-day

COCC(CCC(C)C)(COC)C(C)C [3,3-Bis(methoxymethyl)-2,6-dimethylheptane]
NOEL (Rattus norvegicus [1]; short-term, duration: 28 days, gavage, M/F, Clinical Observation: Salivation + Blood Chemistry: BIL increase, CL decrease + Absolute Organ Weight: Liver increase + Relative Organ …): 8 mg/kg-day

CC(C)c1ccc(N)cc1 [Cumidine]
NOEL (Rattus norvegicus [1]; subchronic, gavage, M, Sprague-Dawley, Clinical Observation: Anemia in eyes + Hematology: Met-Hgb increase, Hct decrease, Hgb decrease, RBC decrease, MCV increase, MCH increase, …): 6 mg/kg-day

Cc1cnc[nH]1 [4-Methylimidazole]
NOEL (Rattus norvegicus [1]; subchronic, diet, M/F, Fischer 344, Deaths + Body Weight Changes: decrease + Hematology: Hct decrease, Hgb decrease, Ret decrease, Plt decrease, RBC decrease + Blood Chemistry…): < 60 mg/kg-day

Cc1cc(Cl)ccc1Cl [Benzene, 1,4-dichloro-2-methyl-]
NOEL (Rattus norvegicus [1]; subchronic, gavage, M, Sprague-Dawley, Clinical Observation: White turbid urine Salivation + Absolute Organ Weight: Kidney increase + Relative Organ Weight: Kidney increase, R): 30 mg/kg-day

CCN(CC)C(=O)c1cccc(C)c1 [DEET]
NOAEL (Rattus norvegicus [2]; developmental, duration: 364 days, oral, diet, M/F, Sprague-Dawley, developmental): 100 mg/kg-day

ClCOCCl [bis(Chloromethyl) ether]
NOAEL (Rattus norvegicus [2]; chronic, duration: 6 months, inhalation, M, Sprague-Dawley, respiratory): 0.47 mg/m3

O=CCCCC=O [Glutaraldehyde]
NOAEL (Rattus norvegicus [2]; acute, duration: 1 days, inhalation, M/F, Fischer 344, respiratory): 0.512 mg/m3
NOAEL (Rattus norvegicus [2]; chronic, duration: 2 years, oral, drinking water, M/F, Fischer 344, gastrointestinal): 4 mg/kg-day

CCN(CC)c1ccc2c(c1)Oc1cc(C)c(Nc3ccccc3)cc1C21OC(=O)c2ccccc21 (stereo not drawn)
LD50 (Rattus norvegicus [3]; [6]): > 2000 mg/kg

c1ccc(-c2ccccc2-c2ccccc2)cc1 [o-Terphenyl]
LOAEL (% diet) (Rattus norvegicus [3]; short-term, duration: 14 days, oral, diet, Wistar): 0.2
NOAEL (Rattus norvegicus [3]; subchronic, duration: 30 days, oral, diet, Sprague-Dawley): 100 mg/kg-day

O.O.O=c1nc([O-])n(Cl)c(=O)n1Cl.[Na+] [Sodium dichloroisocyanurate dihydrate]
LD50 (Rattus norvegicus [3]; acute, dermal, Sprague-Dawley): > 5000 mg/kg
LD50 (Rattus norvegicus [3]; [6]): 1820 mg/kg

CCCCNS(=O)(=O)c1ccccc1 [N-Butylbenzenesulfonamide]
LC50 (Rattus norvegicus [3]; acute, Inhalation, Wistar): > 4070 mg/m3

Brc1ccc(Oc2cc(Br)c(Br)cc2Br)c(Br)c1 [2,2',4,4',5-Pentabromodiphenyl ether]
LOEL (Rattus norvegicus [4]; developmental, injection, intraperitoneal, Wistar, generation: F1, F1: Y maze): 30 mg/kg-day
LOEL (Rattus norvegicus [4]; reproduction developmental, oral, gavage, Crl:CD(SD), generation: P0, P0: Morris water maze (latency, significant trial)): 2 mg/kg-day
LOAEL (Rattus norvegicus [2]; developmental, duration: 1 days, oral, gavage, M/F, Wistar, developmental): 0.06 mg/kg-day

CC(C)(c1ccccc1)c1ccc(O)cc1 [4-Cumylphenol]
LD50 (Rattus norvegicus [3]; acute, oral, Sprague-Dawley): 1770 mg/kg
LD50 (Rattus norvegicus [3]; [6]): 1770 mg/kg

CCCC [Butane]
NOAEL (Rattus norvegicus [3]; reproduction developmental, inhalation, Sprague-Dawley): 21400 mg/m3

CCN(CC)c1ccc2c(c1)Oc1cc(C)c(Nc3ccc(C)cc3C)cc1C21OC(=O)c2ccccc21 (stereo not drawn)
LD50 (Rattus norvegicus [3]; acute, dermal, semiocclusive, Sprague-Dawley): > 2000 mg/kg
LD50 (Rattus norvegicus [3]; [6]): > 10000 mg/kg

Clc1cccc(Cl)c1 [1,3-Dichlorobenzene]
LD50 (Rattus norvegicus [3]; [6]): 1200 mg/kg and 1100 mg/kg and 1000 mg/kg
NOAEL (Rattus norvegicus [3]; reproduction developmental, duration: 10 days, oral, gavage, F, Sprague-Dawley): 200 mg/kg-day
NOAEL (Rattus norvegicus [3]; reproduction developmental, duration: 10 days, oral, gavage, Sprague-Dawley, generation: F1): 200 mg/kg-day
NOAEL (Rattus norvegicus [3]; reproduction developmental, duration: 90 days, oral, gavage, Sprague-Dawley, generation: F0): 147 mg/kg-day
LOAEL (Rattus norvegicus [3]; [7]): 147 mg/kg-day
NOAEL (Rattus norvegicus [3]; [7]): 37 mg/kg-day

O=c1[n-]c(=O)[nH]c(=O)[nH]1.[Na+] [Monosodium cyanurate]
NOAEL (Rattus norvegicus [3]; developmental, duration: 103 weeks, oral, drinking water): 5380 ppm
NOAEL (Rattus norvegicus [3]; developmental, duration: 10 days, oral, gavage, COBSCD (Charles River)): > 5000 mg/kg-day
NOAEL (Rattus norvegicus [3]; reproduction developmental, duration: 13 weeks, oral, drinking water): ≥ 5380 ppm
LOAEL (Rattus norvegicus [3]; [8]): 5380 ppm
NOAEL (Rattus norvegicus [3]; [8]): 1200 ppm
NOAEL (Rattus norvegicus [3]; reproduction developmental, duration: 103 weeks, oral, drinking water, generation: F1): 5380 ppm
NOAEL (Rattus norvegicus [3]; reproduction developmental, duration: 103 weeks, oral, drinking water, generation: F2): 5380 ppm
LOAEL (Rattus norvegicus [3]; [9]): 5380 ppm
NOAEL (Rattus norvegicus [3]; [9]): 2400 ppm
NOAEL (Rattus norvegicus [3]; reproduction developmental, duration: 10 days, oral, gavage, F, COBSCD (Charles River)): > 5000 mg/kg-day
LOAEL (Rattus norvegicus [3]; [10]): ≥ 2000 ppm
NOAEL (Rattus norvegicus [3]; [10]): ≥ 400 ppm and ≤ 1200 ppm

[Cl][Ti]([Cl])([Cl])[Cl] [Titanium tetrachloride]
LOAEL (Rattus norvegicus [2]; chronic, duration: 104 weeks, inhalation, M/F, Crl:CD(SD), respiratory): 0.1 mg/m3
LOAEL (Rattus norvegicus [2]; short-term, duration: 4 weeks, inhalation, M, Crl:CD(SD), respiratory): 5 mg/m3
